Our source for the MIC values is patent US20080064667A1, “OXAZOLE DERIVATIVES OF TETRACYCLINES” (Wyeth, priority 2003, published 2008).

Molecules are shown by their SMILES. ≈ marks a conversion by molar mass, not a printed value.

Common to all, as to test: MIC, broth microdilution (NCCLS)
Common to all, as to format: cell-based
(In general: In broth dilution the organism is exposed to a series of concentrations in liquid medium.)

In assay [1] the test system is S. pneumoniae* GC4465 (Clinical). The settings on record: Streptococcus pneumoniae, Mueller-Hinton II broth, 18-22 hours at 35° C. As to the method: (§1) Methods for in Vitro Antibacterial Evaluation
(§2) The Minimum Inhibitory Concentration (MIC)
(§3) Antimicrobial susceptibility testing. The in vitro activities of the antibiotics are determined by the broth microdilution method as recommended by the National Committee for Clinical Laboratory Standards (NCCLS) (1). Mueller-Hinton II broth (MHBII)(BBL Cockeysville, Md.) is the medium employed in the testing procedures. Microtiter plates containing serial dilutions of each antimicrobial agent are inoculated with each organism to yield the appropriate density (10^5 CFU/ml) in a 100 μl final volume. The plates are incubated for 18-22 hours at 35° C. in ambient air.
(§4) 1. NCCLS. 2000. Methods for Dilution Antimicrobial Susceptibility Tests for Bacteria That Grow Aerobically; Approved Standards: M7-A5, vol. 20. National Committe for Clinical Laboratory Standards, Wayne, Pa.

The subject of assay [2] is E. faecalis GC4555 (ATCC Control). The settings on record: Enterococcus faecalis, Mueller-Hinton II broth, 18-22 hours at 35° C. As to the method: as §1, §2, §3, §4
For assay [3], the system named is E. coli GC1073 (tet(B)). As to conditions: Escherichia coli. The protocol:
as §1, §2, §3, §4

Assay [4] relates to S. aureus GC4536 (Smith MP -In Vivo). As to conditions: Staphylococcus aureus, Mueller-Hinton II broth, 18-22 hours at 35° C. As to the method: as §1, §2, §3, §4
The test system of assay [5] is M. catarrhalis* GC6907 (Clinical). As to conditions: Moraxella catarrhalis, Mueller-Hinton II broth, 18-22 hours at 35° C. The protocol:
as §1, §2, §3, §4

For assay [6], the system named is E. faecalis GC2242 (Van-resistant). As to conditions: Enterococcus faecalis, Mueller-Hinton II broth, 18-22 hours at 35° C. The protocol:
as §1, §2, §3, §4

The subject of assay [7] is S. pneumoniae* GC1894 (Clinical). The settings on record: Streptococcus pneumoniae, Mueller-Hinton II broth, 18-22 hours at 35° C. The protocol:
as §1, §2, §3, §4

Assay [8] relates to S. aureus GC1079 (tet(K)). The settings on record: Staphylococcus aureus, Mueller-Hinton II broth, 18-22 hours at 35° C. The protocol: as §1, §2, §3, §4
Assay [9] relates to S. aureus GC1131 (Clinical). The settings on record: Staphylococcus aureus, Mueller-Hinton II broth, 18-22 hours at 35° C. The protocol: as §1, §2, §3, §4
For assay [10], the system named is E. coli GC4559 (parent GC4560). As to conditions: Escherichia coli, Mueller-Hinton II broth, 18-22 hours at 35° C. The protocol: as §1, §2, §3, §4
The test system of assay [11] is S. aureus GC2216 (ATCC Control). As to conditions: Staphylococcus aureus, Mueller-Hinton II broth, 18-22 hours at 35° C. The protocol:
as §1, §2, §3, §4

For assay [12], the system named is C. albicans GC3066 ATCC (Control). The settings on record: Candida albicans, Mueller-Hinton II broth, 18-22 hours at 35° C. As to the method: as §1, §2, §3, §4
Assay [13] deals with S. pyogenes* GC4563 (Clinical). As to conditions: Streptococcus pyogenes, Mueller-Hinton II broth, 18-22 hours at 35° C. The protocol: as §1, §2, §3, §4
Assay [14] deals with E. coli GC2270 (tet(M)). As to conditions: Escherichia coli. As to the method: as §1, §2, §3, §4
Assay [15] deals with E. coli GC2203 (ATCC Control). The settings on record: Escherichia coli, Mueller-Hinton II broth, 18-22 hours at 35° C. The protocol: as §1, §2, §3, §4
Assay [16] deals with H. influenzae<> GC6896 (ATCC Control). The settings on record: Haemophilus influenzae, Mueller-Hinton II broth, 18-22 hours at 35° C. The protocol:
as §1, §2, §3, §4

The subject of assay [17] is E. coli GC4560 (IMP mutant). The settings on record: Escherichia coli. As to the method:
as §1, §2, §3, §4

Assay [18] deals with S. aureus GC6466 (tet(M)). As to conditions: Staphylococcus aureus, Mueller-Hinton II broth, 18-22 hours at 35° C. The protocol: as §1, §2, §3, §4

For the compound `CN(C)c1cc2nc(/C=C/c3ccc(F)cc3)oc2c2c1C[C@H]1C[C@H]3[C@H](N(C)C)C(O)=C(C(N)=O)C(=O)[C@@]3(O)C(O)=C1C2=O` [Example 29, (6aR,7aS,8S,11aS)-5,8-bis(dimethylamino)-2-[(E)-2-(4-fluorophenyl)ethenyl]-9,11a,12-trihydroxy-11,13-dioxo-6,6a,7,7a,8,11,11a,13-octahydrotetraceno[2,1-d][1,3]oxazole-10-carboxamide], the MIC in assay [1] is 32 µg/mL (≈ 53.1 µM); in assay [2], 8 µg/mL (≈ 13.3 µM); in [3], over 64 µg/mL; in assay [4] it was 8 µg/mL (≈ 13.3 µM); in assay [5] it was 16 µg/mL (≈ 26.6 µM); in assay [6], 8 µg/mL (≈ 13.3 µM). Moreover, the MIC in assay [7] was 32 µg/mL (≈ 53.1 µM); in assay [8] it was 8 µg/mL (≈ 13.3 µM); in assay [9], 8 µg/mL (≈ 13.3 µM); in assay [10] it was over 64 µg/mL; in [11] it was 8 µg/mL (≈ 13.3 µM); in assay [12], over 64 µg/mL. In addition, the MIC was 16 µg/mL (≈ 26.6 µM) in [13]; over 64 µg/mL in assay [14]; over 64 µg/mL in assay [15]; over 64 µg/mL in assay [16]; 8 µg/mL (≈ 13.3 µM) in [17]; 8 µg/mL (≈ 13.3 µM) in [18].
As to `COc1cccc(/C=C/c2nc3cc(N(C)C)c4c(c3o2)C(=O)C2=C(O)[C@]3(O)C(=O)C(C(N)=O)=C(O)[C@@H](N(C)C)[C@@H]3C[C@@H]2C4)c1` [Example 27, (6aR,7aS,8S,11aS)-5,8-bis(dimethylamino)-9,11a,12-trihydroxy-2-[(E)-2-(3-methoxyphenyl)ethenyl]-11,13-dioxo-6,6a,7,7a,8,11,11a,13-octahydrotetraceno[2,1-d][1,3]oxazole-10-carboxamide], the MIC in assay [1] was 64 µg/mL (≈ 104 µM); in [2], 16 µg/mL (≈ 26 µM); in assay [3], over 64 µg/mL; in assay [4], 16 µg/mL (≈ 26 µM); in assay [5] it was over 64 µg/mL; in assay [6], 8 µg/mL (≈ 13 µM). The MIC in assay [7] was 64 µg/mL (≈ 104 µM); in [8] it was 8 µg/mL (≈ 13 µM); in [9] it was 8 µg/mL (≈ 13 µM); in assay [10] it was over 64 µg/mL; in assay [11] it was 8 µg/mL (≈ 13 µM); in assay [12] it was over 64 µg/mL. The MIC was 64 µg/mL (≈ 104 µM) in [13]; over 64 µg/mL in assay [14]; over 64 µg/mL in assay [15]; over 64 µg/mL in assay [16]; 32 µg/mL (≈ 52.1 µM) in assay [17]; 16 µg/mL (≈ 26 µM) in assay [18].
`CN(C)c1cc2nc(/C=C/c3ccco3)oc2c2c1C[C@H]1C[C@H]3[C@H](N(C)C)C(O)=C(C(N)=O)C(=O)[C@@]3(O)C(O)=C1C2=O` [Example 22, (6aR,7aS,8S,11aS)-5,8-bis(dimethylamino)-2-[(E)-2-(2-furyl)ethenyl]-9,11a,12-trihydroxy-11,13-dioxo-6,6a,7,7a,8,11,11a,13-octahydrotetraceno[2,1-d][1,3]oxazole-10-carboxamide]: the MIC is 32 µg/mL (≈ 55.7 µM) in assay [1]; 8 µg/mL (≈ 13.9 µM) in assay [2]; over 64 µg/mL in assay [3]; 8 µg/mL (≈ 13.9 µM) in assay [4]; 16 µg/mL (≈ 27.8 µM) in [5]; 8 µg/mL (≈ 13.9 µM) in [6]. For the same compound, the MIC is 32 µg/mL (≈ 55.7 µM) in assay [7]; 8 µg/mL (≈ 13.9 µM) in [8]; 8 µg/mL (≈ 13.9 µM) in [9]; over 64 µg/mL in [10]; 8 µg/mL (≈ 13.9 µM) in [11]; over 64 µg/mL in assay [12]. Besides, the MIC in assay [13] was 16 µg/mL (≈ 27.8 µM); in [14], over 64 µg/mL; in [15], over 64 µg/mL; in [16], over 64 µg/mL; in assay [17] it was 8 µg/mL (≈ 13.9 µM); in assay [18], 8 µg/mL (≈ 13.9 µM).
Regarding `CN(C)c1cc2nc(-c3ccc(C(C)(C)C)cc3)oc2c2c1C[C@H]1C[C@H]3[C@H](N(C)C)C(O)=C(C(N)=O)C(=O)[C@@]3(O)C(O)=C1C2=O` [Example 31, (6aR,7aS,8S,11aS)-2-(4-tert-butylphenyl)-5,8-bis(dimethylamino)-9,11a,12-trihydroxy-11,13-dioxo-6,6a,7,7a,8,11,11a,13-octahydrotetraceno[2,1-d][1,3]oxazole-10-carboxamide], the MIC in assay [1] was 8 µg/mL (≈ 13 µM); in assay [2], 8 µg/mL (≈ 13 µM); in assay [3], over 64 µg/mL; in assay [4] it was 8 µg/mL (≈ 13 µM); in assay [5] it was 16 µg/mL (≈ 26 µM); in [6] it was 8 µg/mL (≈ 13 µM). The MIC in [7] was 8 µg/mL (≈ 13 µM); in [8], 8 µg/mL (≈ 13 µM); in assay [9], 8 µg/mL (≈ 13 µM); in assay [10] it was over 64 µg/mL; in [11] it was 8 µg/mL (≈ 13 µM); in assay [12] it was over 64 µg/mL. The MIC was 8 µg/mL (≈ 13 µM) in assay [13]; over 64 µg/mL in assay [14]; over 64 µg/mL in assay [15]; over 64 µg/mL in assay [16]; 4 µg/mL (≈ 6.51 µM) in [17]; 4 µg/mL (≈ 6.51 µM) in [18].
As to `COc1ccccc1/C=C/c1nc2cc(N(C)C)c3c(c2o1)C(=O)C1=C(O)[C@]2(O)C(=O)C(C(N)=O)=C(O)[C@@H](N(C)C)[C@@H]2C[C@@H]1C3` [Example 28, (6aR,7aS,8S,11aS)-5,8-bis(dimethylamino)-9,11a,12-trihydroxy-2-[(E)-2-(2-methoxyphenyl)ethenyl]-11,13-dioxo-6,6a,7,7a,8,11,11a,13-octahydrotetraceno[2,1-d][1,3]oxazole-10-carboxamide], the MIC was 32 µg/mL (≈ 52.1 µM) in [1]; 16 µg/mL (≈ 26 µM) in assay [2]; over 64 µg/mL in assay [3]; 16 µg/mL (≈ 26 µM) in assay [4]; 64 µg/mL (≈ 104 µM) in assay [5]; 8 µg/mL (≈ 13 µM) in assay [6]. Moreover, the MIC in [7] was 64 µg/mL (≈ 104 µM); in assay [8], 16 µg/mL (≈ 26 µM); in assay [9], 8 µg/mL (≈ 13 µM); in assay [10], over 64 µg/mL; in [11] it was 8 µg/mL (≈ 13 µM); in assay [12], over 64 µg/mL. The MIC in assay [13] is 16 µg/mL (≈ 26 µM); in assay [14], over 64 µg/mL; in assay [15], over 64 µg/mL; in assay [16], over 64 µg/mL; in assay [17], 16 µg/mL (≈ 26 µM); in assay [18], 8 µg/mL (≈ 13 µM).
With `CN(C)c1cc2nc(C(C)(C)C)oc2c2c1C[C@H]1C[C@H]3[C@H](N(C)C)C(O)=C(C(N)=O)C(=O)[C@@]3(O)C(O)=C1C2=O` [Example 4, (6aR,7aS,8S,11aS)-2-tert-butyl-5,8-bis(dimethylamino)-9,11a,12-trihydroxy-11,13-dioxo-6,6a,7,7a,8,11,11a,13-octahydrotetraceno[2,1-d][1,3]oxazole-10-carboxamide], the MIC in assay [1] was 16 µg/mL (≈ 29.7 µM); in [2], 32 µg/mL (≈ 59.4 µM); in assay [3], over 64 µg/mL; in assay [4], 32 µg/mL (≈ 59.4 µM); in [5], 16 µg/mL (≈ 29.7 µM); in [6], 32 µg/mL (≈ 59.4 µM). The MIC in assay [7] was 32 µg/mL (≈ 59.4 µM); in assay [8], 16 µg/mL (≈ 29.7 µM); in [9], 16 µg/mL (≈ 29.7 µM); in [10] it was over 64 µg/mL; in [11], 32 µg/mL (≈ 59.4 µM); in assay [12], over 64 µg/mL. Further, the MIC was 16 µg/mL (≈ 29.7 µM) in [13]; over 64 µg/mL in assay [14]; over 64 µg/mL in [15]; over 64 µg/mL in [16]; 16 µg/mL (≈ 29.7 µM) in assay [17]; 32 µg/mL (≈ 59.4 µM) in [18].
